In US20250144067A1, “PERSONALIZED STARVATION THERAPY FOR CANCER” (Faeth Therapeutics, Inc., priority 2021, published 2025):
Counter-ions that a name gives are not always drawn.

Legend:
[1] = system: NCI-H292 lung cancer cells; experiment: FDA drug screening, complete media vs cholesterol-free media without statin (TABLE 1); format: cell-based, human
[2] = system: NCI-H292 lung cancer cells; experiment: FDA drug screening, complete media vs cholesterol-free media with simvastatin (TABLE 2); format: cell-based, human; conditions: for Cholesterol-free media + simvastatin (0.04 μM) / Complete Media: NCI-H292 cells
[3] = Complete minus Cholesterol-free, >0 enhanced anti-cancer activity, about 0 neutral, <0 antagonist
[4] = NCI-H292 cells, cholesterol-free media without statin, FDA drug library screen
[5] = NCI-H292 cells, complete media, FDA drug library screen
[6] = FDA drug library screen, cholesterol-free media with simvastatin 0.04 μM
[7] = FDA drug library screen, complete media
[8] = complete media minus cholesterol-free media + simvastatin, >0 enhanced anti-cancer activity, about 0 neutral, <0 antagonist
[9] = complete vs cholesterol-free media, >0 enhanced anti-cancer activity, about 0 neutral, <0 antagonist
[10] = cholesterol-free media with simvastatin 0.04 μM, FDA drug library screen (TABLE 2)
[11] = complete media, FDA drug library screen (TABLE 2)
[12] = complete media minus cholesterol-free media + simvastatin (0.04 μM), >0 enhanced anti-cancer activity, about 0 neutral, <0 antagonist
[13] = Complete minus Cholesterol-free, […]
[14] = NCI-H292 cells, FDA drug library screen, cholesterol-free media without statin
[15] = NCI-H292 cells, FDA drug library screen, complete media
[16] = Complete minus Cholesterol-free, greater than 0 enhanced anti-cancer activity, about 0 neutral, below 0 antagonist
[17] = NCI-H292 cells, cholesterol-free media without statin
[18] = complete vs cholesterol-free media, greater than 0 enhanced anti-cancer activity, about 0 neutral, below 0 antagonists
[19] = complete media vs cholesterol-free media + simvastatin (0.04 μM), >0 enhanced anti-cancer activity, about 0 neutral, <0 antagonist
[20] = drug in cholesterol-free media with simvastatin 0.04 μM
[21] = cholesterol-free media with simvastatin 0.04 μM, cell growth value in FDA drug screen
[22] = complete media, cell growth value in FDA drug screen
[23] = FDA library drug in cholesterol-free media with simvastatin 0.04 μM
[24] = FDA library drug in complete media
[25] = cholesterol-free media with simvastatin 0.04 μM, […]
[26] = complete media minus cholesterol-free media + simvastatin, […]

## C[C@@H]1C[C@H]2[C@@H]3CCC4=CC(=O)C=C[C@]4(C)[C@@]3(F)[C@@H](O)C[C@]2(C)[C@@]1(O)C(=O)COP(=O)([O-])[O-].[Na+].[Na+] [Dexamethasone phosphate disodium]
[1]; [3]
  Difference: −0.02
[1]; [4]
  Cholesterol-free: 0.7426
[1]; [5]
  Complete: 0.7227
[2]; [6]
  Cholesterol-free media + simvastatin (0.04 μM): 0.6625
[2]; [7]
  Complete Media: 1.229
[2]; [8]
  Difference: 0.57

## CC(=O)OCC(=O)[C@@]1(O)CC[C@H]2[C@@H]3CCC4=CC(=O)C=C[C@]4(C)[C@@]3(Cl)[C@@H](Cl)C[C@@]21C [Dichlorisone acetate]
[1]; [4]
  Cholesterol-free: 0.8532
[1]; [5]
  Complete: 1.096
[1]; [9]
  Difference: 0.24
[2]; [10]
  Cholesterol-free media + simvastatin (0.04 μM): 0.7442
[2]; [11]
  Complete Media: 0.6906
[2]; [12]
  Difference: −0.05

## COc1cc2c(cc1OC)-c1cc3ccc(OC)c(OC)c3c[n+]1CC2.[Cl-] [Palmatine (chloride)]
[1]; [13]
  Difference: −0.14
[1]; [14]
  Cholesterol-free: 0.7642
[1]; [15]
  Complete: 0.6255
[2]; [10]
  Cholesterol-free media + simvastatin (0.04 μM): 0.706
[2]; [11]
  Complete Media: 0.6459
[2]; complete media minus cholesterol-free media + simvastatin (0.04 μM), […]
  Difference: −0.06

## CN(C)C(=O)N[C@H]1CC[C@H](CCN2CCN(c3cccc(Cl)c3Cl)CC2)CC1 [Cariprazine (hydrochloride)]
[1]; [16]
  Difference: −0.14
[1]; [14]
  Cholesterol-free: 1.158
[1]; [15]
  Complete: 1.021
[2]; [6]
  Cholesterol-free media + simvastatin (0.04 μM): 1.127
[2]; [7]
  Complete Media: 1.452
[2]; [8]
  Difference: 0.32

## Trelagliptin (succinate)
[1]; [17]
  Cholesterol-free: 1.469
[1]; NCI-H292 cells, complete media
  Complete: 1.135
[1]; [18]
  Difference: −0.33
[2]; [6]
  Cholesterol-free media + simvastatin (0.04 μM): 1.757
[2]; [7]
  Complete Media: 1.617
[2]; [19]
  Difference: −0.14

## CC[C@@H]1CN(C(=O)NCC(F)(F)F)C[C@@H]1c1cnc2cnc3[nH]ccc3n12 [Upadacitinib]
[1]; Complete minus Cholesterol-free, greater than 0 enhanced anti-cancer activity, about 0 neutral, below 0 antagonists
  Difference: −0.51
[1]; NCI-H292 cells in cholesterol-free media without statin
  Cholesterol-free: 1.213
[1]; NCI-H292 cells in complete media
  Complete: 0.7003
[2]; [20]
  Cholesterol-free media + simvastatin (0.04 μM): 0.7425
[2]; drug in complete media
  Complete Media: 0.5732
[2]; [19]
  Difference: −0.17

## COC(=O)Nc1nc2ccc(C(=O)c3ccccc3)cc2[nH]1 [Mebendazole]
[1]; [4]
  Cholesterol-free: 0.1458
[1]; [5]
  Complete: 0.3848
[1]; [9]
  Difference: 0.24
[2]; [21]
  Cholesterol-free media + simvastatin (0.04 μM): 0.4675
[2]; [22]
  Complete Media: 0.5846
[2]; [8]
  Difference: 0.12

## O=c1ccc2ccccc2o1 [Coumarin]
[1]; [4]
  Cholesterol-free: 0.9742
[1]; [5]
  Complete: 1.716
[1]; [9]
  Difference: 0.74
[2]; [10]
  Cholesterol-free media + simvastatin (0.04 μM): 0.8441
[2]; [11]
  Complete Media: 0.7948
[2]; [12]
  Difference: −0.05

## CNC(=O)c1c(I)c(NC(C)=O)c(I)c(C(=O)O)c1I [Iotalamic acid]
[1]; [3]
  Difference: −0.29
[1]; [17]
  Cholesterol-free: 1.385
[1]; NCI-H292 cells, complete media
  Complete: 1.091
[2]; [23]
  Cholesterol-free media + simvastatin (0.04 μM): 1.459
[2]; [24]
  Complete Media: 0.9854
[2]; [19]
  Difference: −0.47

## CC(C)(C)c1ccc(C(O)CCCN2CCC(C(O)(c3ccccc3)c3ccccc3)CC2)cc1 (stereo not drawn) [Terfenadine]
[1]; [17]
  Cholesterol-free: 1.145
[1]; NCI-H292 cells, complete media
  Complete: 0.8219
[1]; [18]
  Difference: −0.32
[2]; [21]
  Cholesterol-free media + simvastatin (0.04 μM): 0.9762
[2]; [22]
  Complete Media: 1.013
[2]; [8]
  Difference: 0.04

## CCCCCCCCCCCCCCCC[n+]1ccccc1.O.[Cl-] [Cetylpyridinium (chloride monohydrate)]
[1]; [13]
  Difference: 0.03
[1]; [4]
  Cholesterol-free: −0.01651
[1]; [5]
  Complete: 0.01449
[2]; [25]
  Cholesterol-free media + simvastatin (0.04 μM): 0.1519
[2]; complete media, […]
  Complete Media: 0.2714
[2]; [26]
  Difference: 0.12

## Cc1c(C)c2c(c(C)c1O)CCC(C)(COc1ccc(CC3SC(=O)NC3=O)cc1)O2 (stereo not drawn) [Troglitazone]
[1]; [4]
  Cholesterol-free: 0.7956
[1]; [5]
  Complete: 1.359
[1]; [9]
  Difference: 0.56
[2]; [6]
  Cholesterol-free media + simvastatin (0.04 μM): 0.9725
[2]; [7]
  Complete Media: 0.8929
[2]; [19]
  Difference: −0.08

## COc1ccc([C@@H]2CC(=O)c3c(O)cc(O[C@@H]4O[C@H](CO[C@@H]5O[C@@H](C)[C@H](O)[C@@H](O)[C@H]5O)[C@@H](O)[C@H](O)[C@H]4O)cc3O2)cc1O [Hesperidin]
[1]; [13]
  Difference: −0.08
[1]; [14]
  Cholesterol-free: 1.106
[1]; [15]
  Complete: 1.03
[2]; [6]
  Cholesterol-free media + simvastatin (0.04 μM): 1.822
[2]; [7]
  Complete Media: 1.671
[2]; complete media vs cholesterol-free media + simvastatin (0.04 μM), […]
  Difference: −0.15

## CC1(C)S[C@@H]2[C@H](NC(=O)[C@H](N)c3ccccc3)C(=O)N2[C@H]1C(=O)O [Ampicillin]
[1]; [4]
  Cholesterol-free: 0.9318
[1]; [5]
  Complete: 1.363
[1]; [9]
  Difference: 0.43
[2]; [23]
  Cholesterol-free media + simvastatin (0.04 μM): 1.07
[2]; [24]
  Complete Media: 0.7564
[2]; [19]
  Difference: −0.31

## COC(=O)c1cccc(CCN(C)CCC[C@@](C#N)(c2ccc(OC)c(OC)c2)C(C)C)c1 [Etripamil]
[1]; [17]
  Cholesterol-free: 1.343
[1]; NCI-H292 cells, complete media
  Complete: 0.9721
[1]; complete vs cholesterol-free media, […]
  Difference: −0.37
[2]; [25]
  Cholesterol-free media + simvastatin (0.04 μM): 0.8109
[2]; complete media, […]
  Complete Media: 0.8724
[2]; [26]
  Difference: 0.06

## NS(=O)(=O)c1cc2c(cc1Cl)N=CNS2(=O)=O [Chlorothiazide]
[1]; [4]
  Cholesterol-free: 0.8661
[1]; [5]
  Complete: 1.321
[1]; [9]
  Difference: 0.45
[2]; [20]
  Cholesterol-free media + simvastatin (0.04 μM): 1.126
[2]; drug in complete media
  Complete Media: 0.9372
[2]; [19]
  Difference: −0.19

## CC(=O)O[C@]1(C(C)=O)CC[C@H]2[C@@H]3C[C@H](C)C4=CC(=O)CC[C@]4(C)[C@H]3CC[C@@]21C [Medroxyprogesterone acetate]
[1]; [17]
  Cholesterol-free: 1.058
[1]; NCI-H292 cells, complete media
  Complete: 0.6058
[1]; [18]
  Difference: −0.45
[2]; [6]
  Cholesterol-free media + simvastatin (0.04 μM): 1.001
[2]; [7]
  Complete Media: 0.9291
[2]; [19]
  Difference: −0.07

## Oc1ncnc2[nH]ncc12 [Allopurinol]
[1]; [3]
  Difference: −0.29
[1]; [17]
  Cholesterol-free: 1.198
[1]; NCI-H292 cells, complete media
  Complete: 0.9095
[2]; [21]
  Cholesterol-free media + simvastatin (0.04 μM): 0.8896
[2]; [22]
  Complete Media: 0.9734
[2]; [8]
  Difference: 0.08

## NC(=O)c1cccc2cn(-c3ccc([C@@H]4CCCNC4)cc3)nc12 [Niraparib]
[1]; [3]
  Difference: −0.30
[1]; [17]
  Cholesterol-free: 1.29
[1]; NCI-H292 cells, complete media
  Complete: 0.9917
[2]; [10]
  Cholesterol-free media + simvastatin (0.04 μM): 1.191
[2]; [11]
  Complete Media: 1.193
[2]; [12]
  Difference: 0.00

## O=C1O[C@H]([C@@H](O)CO)C(O)=C1O [L-Ascorbic acid]
[1]; [16]
  Difference: −0.14
[1]; [14]
  Cholesterol-free: 1.001
[1]; [15]
  Complete: 0.8619
[2]; [6]
  Cholesterol-free media + simvastatin (0.04 μM): 1.16
[2]; [7]
  Complete Media: 1.003
[2]; [19]
  Difference: −0.16

## NS(=O)(=O)c1cc(C2(O)NC(=O)c3ccccc32)ccc1Cl (stereo not drawn) [Chlorthalidone]
[1]; [3]
  Difference: −0.22
[1]; [17]
  Cholesterol-free: 1.209
[1]; NCI-H292 cells, complete media
  Complete: 0.9927
[2]; [20]
  Cholesterol-free media + simvastatin (0.04 μM): 1.215
[2]; drug in complete media
  Complete Media: 0.9907
[2]; [19]
  Difference: −0.22
